Common to all, as to assay type: biochemical
The target of experiment [1] is T1, HcyD (WS1005) (Wolinella succinogenes, UniProt Q7MRV8).
T1 sequence (Q7MRV8 1-130): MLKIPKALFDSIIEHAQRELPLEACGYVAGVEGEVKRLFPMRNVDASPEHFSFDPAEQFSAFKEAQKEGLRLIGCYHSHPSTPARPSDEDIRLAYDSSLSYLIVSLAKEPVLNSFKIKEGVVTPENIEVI
The experiment in a line: 1H-NMR of released alanine. As to conditions: released from HcyS-Ala (protein substrate); pH 8.0; room temperature.

Experiment [2] addresses T2, MetY (WS1012) (Wolinella succinogenes, UniProt Q7M9C8).
T2 sequence (Q7M9C8 1-407): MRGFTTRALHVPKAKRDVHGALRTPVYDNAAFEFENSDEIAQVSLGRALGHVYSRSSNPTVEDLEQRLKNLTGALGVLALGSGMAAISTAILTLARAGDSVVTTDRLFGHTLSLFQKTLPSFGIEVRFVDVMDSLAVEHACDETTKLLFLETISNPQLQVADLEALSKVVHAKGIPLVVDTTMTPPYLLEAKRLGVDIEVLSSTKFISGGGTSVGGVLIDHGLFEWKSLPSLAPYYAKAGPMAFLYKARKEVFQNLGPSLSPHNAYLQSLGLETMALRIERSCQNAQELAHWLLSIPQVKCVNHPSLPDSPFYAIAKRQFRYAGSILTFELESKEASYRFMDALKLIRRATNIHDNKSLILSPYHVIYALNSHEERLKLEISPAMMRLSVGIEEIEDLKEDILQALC
The experiment in a line: MALDI-MS of HcyS-homocysteine formation. As to conditions: HcyS-COSH as sulfur donor; room temperature.

Experiment [3] deals with T3, HcyF (WS1006) (Wolinella succinogenes, UniProt Q7M9D2).
T3 sequence (Q7M9D2 1-272): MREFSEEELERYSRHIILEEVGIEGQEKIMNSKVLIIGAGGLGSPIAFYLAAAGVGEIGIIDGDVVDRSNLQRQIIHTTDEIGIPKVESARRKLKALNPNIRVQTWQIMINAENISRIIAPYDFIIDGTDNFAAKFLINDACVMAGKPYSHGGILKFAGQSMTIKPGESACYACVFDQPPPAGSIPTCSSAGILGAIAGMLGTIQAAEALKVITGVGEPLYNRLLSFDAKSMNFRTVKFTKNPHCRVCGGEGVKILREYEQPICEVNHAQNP
The experiment in a line: HPLC detection of AMP formation. As to conditions: HcyS-Ala and HcyD present; MgCl2; room temperature.

The source of these data is paper PMC3089676 (Journal of the American Chemical Society, 2010).

As to `C[C@H](N)C(=O)O` [alanine], the “1H-NMR of released alanine” value in experiment [1] is listed as 1H-NMR analysis of the small-molecule product confirmed the release of alanine from HcyS-Ala.

For `CC(=O)OCC[C@H](N)C(=O)O` [O-acetyl-L-homoserine], the “MALDI-MS of HcyS-homocysteine formation” value in experiment [2] is listed as “catalyzed the reaction of HcyS-COSH with O-acetyl-L-homoserine to form HcyS-Homocysteine”.

As for `Nc1ncnc2c1ncn2[C@@H]1O[C@H](COP(=O)(O)OP(=O)(O)OP(=O)(O)O)[C@@H](O)[C@H]1O` [ATP], the “HPLC detection of AMP formation” value in experiment [3] was “AMP formation was dependent on HcyF, HcyS-Ala and HcyD”.
